In patent publication US20240336593A1, “Compound Having Antitumor Activity And Use Thereof” (lnnovStoneTherapeutics Limited, priority 2020, published 2024) one finds tumor growth inhibited and IC50 data, which are given here for three compounds.

By IC50 is commonly meant the concentration that gives 50% inhibition. Read a high IC50 as weaker potency in that assay.

The subject of assay [1] is Xenograft models of small cell lung cancer (SCLC), non-small cell lung cancer (NSCLC), acute myeloid leukemia (AML) and non-Hodgkin's lymphoma. The following applies: cited from earlier work.
The target of another assay is PRMT5 (Homo sapiens (Human), UniProt O14744). The assay can be described thus: Inhibitory activity against PRMT5 enzyme by radioisotopic method. The class given is biochemical. The following applies: PRMT5 5 nM, [3H]-SAM 0.3 μM, polypeptide substrate GL-27 100 nM, room temperature. In short, it runs like this: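 PRMT5 (5 nM) preincubated with compound and [3H]-SAM (0.3 μM) 60 min at RT in Tris pH 8.0/Tween-20/DTT, 1% DMSO; biotinylated GL-27 peptide (100 nM) added, 120 min RT, stopped with cold SAM. Peptide captured on streptavidin FlashPlate, CPM counted; IC50 from four-parameter fit of % inhibition.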

Structures are written as SMILES.

PRMT5, sequence (O14744 whole entry): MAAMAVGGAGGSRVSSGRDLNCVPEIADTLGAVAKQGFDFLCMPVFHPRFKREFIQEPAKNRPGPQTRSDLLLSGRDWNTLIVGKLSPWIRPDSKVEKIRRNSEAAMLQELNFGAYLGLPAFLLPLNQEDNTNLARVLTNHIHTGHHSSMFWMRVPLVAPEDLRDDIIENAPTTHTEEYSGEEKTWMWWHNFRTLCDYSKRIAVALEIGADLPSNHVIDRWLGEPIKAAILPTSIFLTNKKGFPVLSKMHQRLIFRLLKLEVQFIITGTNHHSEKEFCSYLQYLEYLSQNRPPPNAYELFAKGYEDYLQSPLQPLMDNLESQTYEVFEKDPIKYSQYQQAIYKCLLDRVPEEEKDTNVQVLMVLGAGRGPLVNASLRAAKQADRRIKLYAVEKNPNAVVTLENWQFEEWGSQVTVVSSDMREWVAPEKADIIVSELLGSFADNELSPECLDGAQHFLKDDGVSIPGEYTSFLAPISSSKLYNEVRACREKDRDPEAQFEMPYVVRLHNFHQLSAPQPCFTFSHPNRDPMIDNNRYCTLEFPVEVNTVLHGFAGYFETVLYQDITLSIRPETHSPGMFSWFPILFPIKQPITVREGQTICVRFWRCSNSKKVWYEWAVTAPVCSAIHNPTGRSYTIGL
PRMT5, sequence (Q9BQA1 whole entry partner): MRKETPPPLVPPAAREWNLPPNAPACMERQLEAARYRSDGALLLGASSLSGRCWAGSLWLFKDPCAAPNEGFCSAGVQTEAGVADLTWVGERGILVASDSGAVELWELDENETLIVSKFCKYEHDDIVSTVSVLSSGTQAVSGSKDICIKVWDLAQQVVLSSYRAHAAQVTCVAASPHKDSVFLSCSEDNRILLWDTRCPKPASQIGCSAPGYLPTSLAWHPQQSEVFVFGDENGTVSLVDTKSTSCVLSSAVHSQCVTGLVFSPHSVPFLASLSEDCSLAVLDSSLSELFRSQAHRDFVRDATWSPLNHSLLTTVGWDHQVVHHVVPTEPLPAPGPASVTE

With `Nc1nc2cc(CC[C@H]3C[C@@H](n4ccc5c(N)ncnc54)[C@H](O)[C@@H]3O)ccc2cc1Br` [JNJ-64619178], the tumor growth inhibited entry in assay [1] is “up to 99%”.

Turning to `CC(=O)N1CCC(Nc2cc(C(=O)N3CC[C@H](N4CCc5ccccc5C4)[C@@H](O)C3)nc(-c3ccccc3)n2)CC1` [Example 104], the IC50 against PRMT5 is < 100 nM.

`CC(=O)N1CCCC(Nc2cc(C(=O)N3CC[C@H](N4CCc5ccccc5C4)[C@@H](O)C3)ncn2)C1` (relative stereo) [Example 106, trans-1-(3-((6-(4-(3,4-dihydroisoquinolin-2(1H)-yl)-3-hydroxypiperidine-1-carbonyl)pyrimidin-4-yl)amino)piperidin-1-yl)ethan-1-one]: the half-inhibitory concentration (IC50) at PRMT5 was < 100 nM.
